Measurements published in PubChem BioAssay (NCI).
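These data come from cells grown in 96-well plates and exposed to compound for 48 hours at five concentrations. TGI is the concentration that stops growth completely.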

Key:
Assay in all cases: NCI-60 cell line screen, 48 h
786-0 renal = test system: 786-0 renal
A549 NSCLC = test system: A549 NSCLC
ACHN renal = test system: ACHN renal
CCRF-CEM leukemia = test system: CCRF-CEM leukemia
COLO 205 colon = test system: COLO 205 colon
DLD-1 colon = test system: DLD-1 colon
DMS 114 small cell lung = test system: DMS 114 small cell lung
DMS 273 small cell lung = test system: DMS 273 small cell lung
EKVX NSCLC = test system: EKVX NSCLC
HCC-2998 colon = test system: HCC-2998 colon
HCT-116 colon = test system: HCT-116 colon
HCT-15 colon = test system: HCT-15 colon
HL-60(TB) leukemia = test system: HL-60(TB) leukemia
HOP-18 NSCLC = test system: HOP-18 NSCLC
HOP-62 NSCLC = test system: HOP-62 NSCLC
HOP-92 NSCLC = test system: HOP-92 NSCLC
HT29 colon = test system: HT29 colon
IGROV1 ovarian = test system: IGROV1 ovarian
K-562 leukemia = test system: K-562 leukemia
KM20L2 colon = test system: KM20L2 colon
LOX IMVI melanoma = test system: LOX IMVI melanoma
LXFL 529 NSCLC = test system: LXFL 529 NSCLC
M14 melanoma = test system: M14 melanoma
M19-MEL melanoma = test system: M19-MEL melanoma
MOLT-4 leukemia = test system: MOLT-4 leukemia
NCI-H23 lung = test system: NCI-H23 lung
NCI-H460 lung = test system: NCI-H460 lung
NCI-H522 lung = test system: NCI-H522 lung
OVCAR-3 ovarian = test system: OVCAR-3 ovarian
OVCAR-4 ovarian = test system: OVCAR-4 ovarian
OVCAR-8 ovarian = test system: OVCAR-8 ovarian
RPMI-8226 leukemia = test system: RPMI-8226 leukemia
RXF 393 renal = test system: RXF 393 renal
SF-268 CNS = test system: SF-268 CNS
SF-295 CNS = test system: SF-295 CNS
SK-MEL-28 melanoma = test system: SK-MEL-28 melanoma
SK-MEL-5 melanoma = test system: SK-MEL-5 melanoma
SK-OV-3 ovarian = test system: SK-OV-3 ovarian
SN12C renal = test system: SN12C renal
SNB-19 CNS = test system: SNB-19 CNS
SR leukemia = test system: SR leukemia
SW-620 colon = test system: SW-620 colon
TK-10 renal = test system: TK-10 renal
U251 CNS = test system: U251 CNS
UACC-257 melanoma = test system: UACC-257 melanoma
UACC-62 melanoma = test system: UACC-62 melanoma
UO-31 renal = test system: UO-31 renal
XF 498 CNS = test system: XF 498 CNS
A498 renal = test system: A498 renal
CAKI-1 renal = test system: CAKI-1 renal
KM12 colon = test system: KM12 colon
MALME-3M melanoma = test system: MALME-3M melanoma
NCI-H226 lung = test system: NCI-H226 lung
OVCAR-5 ovarian = test system: OVCAR-5 ovarian
SF-539 CNS = test system: SF-539 CNS
SK-MEL-2 melanoma = test system: SK-MEL-2 melanoma
SNB-75 CNS = test system: SNB-75 CNS
SNB-78 CNS = test system: SNB-78 CNS

In the case of `NC(=O)NN/C=C(/C=Nc1ccccc1)[N+](=O)[O-]`, the TGI (786-0 renal) is reported as > 100 µM, the TGI (A549 NSCLC) is reported as > 100 µM and the TGI (ACHN renal) is reported as > 100 µM. The TGI (CCRF-CEM leukemia) was > 100 µM, the TGI (COLO 205 colon) was > 100 µM and the TGI (DLD-1 colon) was > 100 µM. The TGI (DMS 114 small cell lung) was > 100 µM, the TGI (DMS 273 small cell lung) was > 100 µM and the TGI (EKVX NSCLC) was > 100 µM. The TGI (HCC-2998 colon) was > 100 µM, the TGI (HCT-116 colon) was > 100 µM and the TGI (HCT-15 colon) was > 100 µM. The TGI (HL-60(TB) leukemia) was > 100 µM, the TGI (HOP-18 NSCLC) was > 100 µM and the TGI (HOP-62 NSCLC) was > 100 µM. The TGI (HOP-92 NSCLC) was > 100 µM, the TGI (HT29 colon) was > 100 µM and the TGI (IGROV1 ovarian) was > 100 µM. The TGI (K-562 leukemia) was > 100 µM, the TGI (KM20L2 colon) was > 100 µM and the TGI (LOX IMVI melanoma) was > 100 µM. For the same compound, the TGI (LXFL 529 NSCLC) was > 100 µM, the TGI (M14 melanoma) was > 100 µM and the TGI (M19-MEL melanoma) was > 100 µM. For the same compound, the TGI (MOLT-4 leukemia) was > 100 µM, the TGI (NCI-H23 lung) was > 100 µM and the TGI (NCI-H460 lung) was > 100 µM. For the same compound, the TGI (NCI-H522 lung) was > 100 µM, the TGI (OVCAR-3 ovarian) was > 100 µM and the TGI (OVCAR-4 ovarian) was > 100 µM. The TGI (OVCAR-8 ovarian) was > 100 µM, the TGI (RPMI-8226 leukemia) was > 100 µM and the TGI (RXF 393 renal) was > 100 µM. For the same compound, the TGI (SF-268 CNS) was > 100 µM, the TGI (SF-295 CNS) was > 100 µM and the TGI (SK-MEL-28 melanoma) was > 100 µM. For the same compound, the TGI (SK-MEL-5 melanoma) was > 100 µM, the TGI (SK-OV-3 ovarian) was > 100 µM and the TGI (SN12C renal) was > 100 µM. For the same compound, the TGI (SNB-19 CNS) was > 100 µM, the TGI (SR leukemia) was > 100 µM and the TGI (SW-620 colon) was > 100 µM. The TGI (TK-10 renal) was > 100 µM, the TGI (U251 CNS) was > 100 µM and the TGI (UACC-257 melanoma) was > 100 µM. The TGI (UACC-62 melanoma) was > 100 µM, the TGI (UO-31 renal) was > 100 µM and the TGI (XF 498 CNS) was > 100 µM.
For `CCOP1(=O)C=CC(Cl)=C(C)C1` (stereo not drawn), the TGI (786-0 renal) was 30.6 µM, the TGI (A498 renal) was > 71.1 µM and the TGI (A549 NSCLC) was > 100 µM. The TGI (ACHN renal) was 24.8 µM, the TGI (CAKI-1 renal) was 23.7 µM and the TGI (CCRF-CEM leukemia) was 12 µM. The TGI (COLO 205 colon) was 44.4 µM, the TGI (DLD-1 colon) was 25.4 µM and the TGI (DMS 114 small cell lung) was 39.4 µM. For the same compound, the TGI (EKVX NSCLC) was > 56.8 µM, the TGI (HCC-2998 colon) was 29.6 µM and the TGI (HCT-116 colon) was 44.7 µM. It also gave a TGI (HCT-15 colon) of 30.1 µM, a TGI (HL-60(TB) leukemia) of 15.3 µM and a TGI (HOP-18 NSCLC) of 31.2 µM. The TGI (HOP-62 NSCLC) was 70 µM, the TGI (HOP-92 NSCLC) was 34.3 µM and the TGI (HT29 colon) was 28.5 µM. It also gave a TGI (IGROV1 ovarian) of 55.1 µM, a TGI (K-562 leukemia) of 20.4 µM and a TGI (KM12 colon) of 33.5 µM. The TGI (KM20L2 colon) was 31.8 µM, the TGI (LOX IMVI melanoma) was 39 µM and the TGI (LXFL 529 NSCLC) was 25.9 µM. The TGI (M14 melanoma) was 29 µM, the TGI (M19-MEL melanoma) was > 57.3 µM and the TGI (MALME-3M melanoma) was 29 µM. For the same compound, the TGI (MOLT-4 leukemia) was 19.9 µM, the TGI (NCI-H226 lung) was > 100 µM and the TGI (NCI-H23 lung) was 18.1 µM. It also gave a TGI (NCI-H460 lung) of 74.3 µM, a TGI (NCI-H522 lung) of 17.3 µM and a TGI (OVCAR-3 ovarian) of 35 µM. For the same compound, the TGI (OVCAR-4 ovarian) was 30.7 µM, the TGI (OVCAR-5 ovarian) was 50.2 µM and the TGI (OVCAR-8 ovarian) was 71.6 µM. The TGI (RPMI-8226 leukemia) was > 59.4 µM, the TGI (RXF 393 renal) was 14.3 µM and the TGI (SF-268 CNS) was 56.9 µM. For the same compound, the TGI (SF-295 CNS) was > 100 µM, the TGI (SF-539 CNS) was 43.6 µM and the TGI (SK-MEL-2 melanoma) was 27.5 µM. The TGI (SK-MEL-28 melanoma) was 30.3 µM, the TGI (SK-MEL-5 melanoma) was 36.5 µM and the TGI (SK-OV-3 ovarian) was > 100 µM. The TGI (SN12C renal) was 16.3 µM, the TGI (SNB-19 CNS) was > 100 µM and the TGI (SNB-75 CNS) was 19.9 µM. It also gave a TGI (SNB-78 CNS) of 47.5 µM, a TGI (SW-620 colon) of 30.4 µM and a TGI (TK-10 renal) of 34.2 µM. It also gave a TGI (U251 CNS) of 65.3 µM, a TGI (UACC-257 melanoma) of 39.8 µM and a TGI (UACC-62 melanoma) of 32.2 µM. The TGI (UO-31 renal) was > 71.5 µM and the TGI (XF 498 CNS) was 34.3 µM.
`[N-]=[N+]=NC1C2CC3C4CC5CC3[C@H](C2)C(C5)C41` (stereo partly drawn) was tested, and the TGI (786-0 renal) was > 100 µM, the TGI (A498 renal) was > 100 µM and the TGI (A549 NSCLC) was > 100 µM. For the same compound, the TGI (ACHN renal) was > 100 µM, the TGI (CAKI-1 renal) was > 100 µM and the TGI (CCRF-CEM leukemia) was > 100 µM. For the same compound, the TGI (COLO 205 colon) was > 100 µM, the TGI (DLD-1 colon) was > 100 µM and the TGI (DMS 114 small cell lung) was > 100 µM. The TGI (DMS 273 small cell lung) was > 100 µM, the TGI (EKVX NSCLC) was > 100 µM and the TGI (HCC-2998 colon) was > 100 µM. The TGI (HCT-116 colon) was > 100 µM, the TGI (HOP-18 NSCLC) was > 100 µM and the TGI (HOP-62 NSCLC) was > 100 µM. The TGI (HOP-92 NSCLC) was > 100 µM, the TGI (HT29 colon) was > 100 µM and the TGI (IGROV1 ovarian) was > 100 µM. The TGI (K-562 leukemia) was > 100 µM, the TGI (KM12 colon) was > 100 µM and the TGI (LOX IMVI melanoma) was > 100 µM. The TGI (LXFL 529 NSCLC) was > 100 µM, the TGI (M14 melanoma) was > 100 µM and the TGI (M19-MEL melanoma) was > 100 µM. For the same compound, the TGI (MALME-3M melanoma) was > 100 µM, the TGI (MOLT-4 leukemia) was > 100 µM and the TGI (NCI-H226 lung) was > 100 µM. For the same compound, the TGI (NCI-H23 lung) was > 100 µM, the TGI (NCI-H460 lung) was > 100 µM and the TGI (NCI-H522 lung) was > 100 µM. For the same compound, the TGI (OVCAR-3 ovarian) was > 100 µM, the TGI (OVCAR-4 ovarian) was > 100 µM and the TGI (OVCAR-5 ovarian) was > 100 µM. For the same compound, the TGI (OVCAR-8 ovarian) was > 100 µM, the TGI (RPMI-8226 leukemia) was > 100 µM and the TGI (RXF 393 renal) was > 100 µM. The TGI (SF-268 CNS) was > 100 µM, the TGI (SF-295 CNS) was > 100 µM and the TGI (SF-539 CNS) was > 100 µM. For the same compound, the TGI (SK-MEL-2 melanoma) was > 100 µM, the TGI (SK-MEL-28 melanoma) was > 100 µM and the TGI (SK-MEL-5 melanoma) was > 100 µM. For the same compound, the TGI (SK-OV-3 ovarian) was > 100 µM, the TGI (SN12C renal) was > 100 µM and the TGI (SNB-19 CNS) was > 100 µM. For the same compound, the TGI (SNB-75 CNS) was > 100 µM, the TGI (SR leukemia) was > 100 µM and the TGI (SW-620 colon) was > 100 µM. For the same compound, the TGI (TK-10 renal) was > 100 µM, the TGI (U251 CNS) was > 100 µM and the TGI (UACC-257 melanoma) was > 100 µM. The TGI (UACC-62 melanoma) was > 100 µM, the TGI (UO-31 renal) was > 100 µM and the TGI (XF 498 CNS) was > 100 µM.
